# Laboratory results: patent publication US12252481B2, “Anti-viral compounds” (Aligos Therapeutics, Inc., priority 2021, dated 2025)
# Where two headings read alike, the source gives them in different places.
# Experiments:
# [1] = target: T1, human cathepsin L (Homo sapiens, UniProt P07711); assay: Cathepsin L assay (Z-FR-AMC fluorescence); format: biochemical; conditions: 10 pM human cathepsin L, 30 mins preincubation, Z-FR-AMC 2 μM
# T1 construct: purchased R&D Systems
# Outline: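 IC50 values were taken from four-parameter fits of fluorescence read at 355/460 nm every 2 minutes for 30 minutes. The reaction started when 2 μM Z-FR-AMC was added. Before that, 10 pM human cathepsin L had been preincubated with inhibitor for 30 minutes.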
# [2] = test system: B.1.1.7 lineage SARS-CoV-2; assay: microbe, parasite or virus in culture; format: cell-based; conditions: Severe acute respiratory syndrome coronavirus 2, 96 h, read-out: A549-dual_ACE2_TMPRSS2 (EC50)
# [3] = test system: SARS-CoV-2-GHB-03021/2020; format: cell-based; conditions: read-out: VeroE6 + CP (EC50)
# [4] = target: T2, HRV3C (Human rhinovirus 14, UniProt P03303); assay: biochemical; set-up: species or system HRV; conditions: HRV3C, 30 mins preincubation, SAMDI-MS
# T2 construct: 3CLpro and HRV3C was added using a Multidrop Combi
# T2 sequence (P03303 1538-1719): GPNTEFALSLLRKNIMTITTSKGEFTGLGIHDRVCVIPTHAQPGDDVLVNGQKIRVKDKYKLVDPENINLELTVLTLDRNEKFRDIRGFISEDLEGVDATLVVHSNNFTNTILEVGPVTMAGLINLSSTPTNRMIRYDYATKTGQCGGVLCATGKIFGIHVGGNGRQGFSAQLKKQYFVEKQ
# [5] = test system: human beta-coronavirus OC43; assay: OC43 coronavirus antiviral assay in HeLa cells (cytopathic effect, cell-titer-glo); format: cell-based; conditions: Betacoronavirus 1, OC43, HeLa, 144 h, 6 days at 33° C.
# [6] = target: T3, SARS-Cov-2 3CLpro (Severe acute respiratory syndrome coronavirus 2, UniProt P0DTD1); assay: biochemical; conditions: 3CLpro, 30 mins preincubation, SAMDI-MS; read-out: SARS-Cov-2 IC50 (class)
# T3 construct: 3CLpro and HRV3C was added using a Multidrop Combi
# [7] = […], numeric bounds given instead of class symbols
# T1 sequence (P07711 114-333): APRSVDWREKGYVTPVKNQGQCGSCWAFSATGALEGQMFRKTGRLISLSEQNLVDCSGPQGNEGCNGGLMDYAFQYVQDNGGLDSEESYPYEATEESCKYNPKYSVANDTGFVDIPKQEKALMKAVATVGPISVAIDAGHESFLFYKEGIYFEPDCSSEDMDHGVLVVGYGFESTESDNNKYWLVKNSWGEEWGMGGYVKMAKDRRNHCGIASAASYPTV
SMILES,IC50 [1] [nM],EC50 [2] [nM],EC50 [3] [nM],IC50 ([4]; read-out: HRV IC50 (bound)) [nM],EC50 ([5]; read-out: EC50 (class)) [nM],IC50 [6] [nM],IC50 ([4]; read-out: HRV IC50 (class)) [nM],"EC50 [2, 7] [nM]",EC50 ([5]; read-out: EC50 (bound)) [nM]
"CC(C)(C)C(C(=O)N1C[C@H]2[C@@H]([C@H]1C(=O)N[C@H](C#N)C[C@@H]1CCNC1=O)[C@H]1C=C[C@@H]2C1)n1cc(C(F)(F)F)nn1 (stereo partly drawn) [Compound 42, (1S,3aR,4S,7R,7aS)-N-((S)-1-cyano-2-((S)-2-oxopyrrolidin-3-yl)ethyl)-2-(3,3-dimethyl-2-(4-(trifluoromethyl)-1H-1,2,3-triazol-1-yl)butanoyl)-2,3,3a,4,7,7a-hexahydro-1H-4,7-methanoisoindole-1-carboxamide]",≥ 10000,100 to 1000,100 to 1000,> 10000,100 to 1000,20 to 200,–,–,–
"Cc1nnc(N[C@H](C(=O)N2C[C@H]3[C@@H]([C@H]2C(=O)N[C@H](C#N)C[C@@H]2CCNC2=O)[C@H]2C=C[C@@H]3C2)C(C)(C)C)o1 [Compound 43, (1S,3aR,4S,7R,7aS)-N-((S)-1-cyano-2-((S)-2-oxopyrrolidin-3-yl)ethyl)-2-((S)-3,3-dimethyl-2-((5-methyl-1,3,4-oxadiazol-2-yl)amino)butanoyl)-2,3,3a,4,7,7a-hexahydro-1H-4,7-methanoisoindole-1-carboxamide]",≥ 10000,100 to 1000,100 to 1000,> 10000,100 to 1000,< 20,–,–,–
"N#C[C@H](C[C@@H]1CCNC1=O)NC(=O)[C@@H]1[C@@H]2[C@H](CN1C(=O)c1cc3c(Cl)cc(Cl)cc3[nH]1)[C@@H]1C=C[C@H]2C1 [Compound 44, (1S,3aR,4S,7R,7aS)-N-((S)-1-cyano-2-((S)-2-oxopyrrolidin-3-yl)ethyl)-2-(4,6-dichloro-1H-indole-2-carbonyl)-2,3,3a,4,7,7a-hexahydro-1H-4,7-methanoisoindole-1-carboxamide]",≥ 10000,1000 to 10000,1000 to 10000,> 10000,100 to 1000,20 to 200,–,–,–
"O=C(NC1CC1)C(=O)C(C[C@@H]1CCNC1=O)NC(=O)[C@@H]1[C@@H]2[C@H](CN1C(=O)c1nc3c(Cl)ccc(Cl)c3[nH]1)[C@@H]1C=C[C@H]2C1 (stereo partly drawn) [Compound 45, (1S,3aR,4S,7R,7aS)—N-(4-(cyclopropylamino)-3,4-dioxo-1-((S)-2-oxopyrrolidin-3-yl)butan-2-yl)-2-(4,7-dichloro-1H-benzo[d]imidazole-2-carbonyl)-2,3,3a,4,7,7a-hexahydro-1H-4,7-methanoisoindole-1-carboxamide]",≥ 10000,1000 to 10000,1000 to 10000,–,1000 to 10000,20 to 200,2000 to 20000,–,–
"O=C(NC1CC1)C(=O)C(C[C@@H]1CCNC1=O)NC(=O)[C@@H]1[C@@H]2[C@H](CN1C(=O)c1cc3c(Cl)cc(Cl)cc3[nH]1)[C@@H]1C=C[C@H]2C1 (stereo partly drawn) [Compound 46, (1S,3aR,4S,7R,7aS)—N-(4-(cyclopropylamino)-3,4-dioxo-1-((S)-2-oxopyrrolidin-3-yl)butan-2-yl)-2-(4,6-dichloro-1H-indole-2-carbonyl)-2,3,3a,4,7,7a-hexahydro-1H-4,7-methanoisoindole-1-carboxamide]",≥ 10000,100 to 1000,100 to 1000,–,100 to 1000,< 20,200 to 2000,–,–
"CN1CC(C[C@@H](C#N)NC(=O)[C@@H]2[C@@H]3[C@H](CN2C(=O)[C@@H](NC(=O)C(F)(F)F)C(C)(C)C)[C@@H]2C=C[C@H]3C2)C(=O)N1 (stereo partly drawn) [Compound 49, (1S,3aR,4S,7R,7aS)-N-((S)-1-cyano-2-(1-methyl-3-oxopyrazolidin-4-yl)ethyl)-2-((S)-3,3-dimethyl-2-(2,2,2-trifluoroacetamido)butanoyl)-2,3,3a,4,7,7a-hexahydro-1H-4,7-methanoisoindole-1-carboxamide]",≥ 10000,100 to 1000,100 to 1000,> 10000,100 to 1000,< 20,–,–,–
"[2H]C1([2H])C[C@@H](C[C@@H](C#N)NC(=O)[C@@H]2[C@@H]3[C@H](CN2C(=O)[C@@H](NC(=O)C(F)(F)F)C(C)(C)C)[C@@H]2C=C[C@H]3C2)C(=O)N1 [Compound 50, (1S,3aR,4S,7R,7aS)-N-((S)-1-cyano-2-((S)-2-oxopyrrolidin-3-yl-5,5-d2)ethyl)-2-((S)-3,3-dimethyl-2-(2,2,2-trifluoroacetamido)butanoyl)-2,3,3a,4,7,7a-hexahydro-1H-4,7-methanoisoindole-1-carboxamide]",≥ 10000,< 100,< 100,> 10000,< 100,< 20,–,–,–
CC(C)(C)[C@H](OC1CC1)C(=O)N1C[C@H]2[C@@H]([C@H]1C(=O)N[C@H](C#N)C[C@@H]1CCNC1=O)[C@H]1C=C[C@@H]2C1 [Compound 54],≥ 10000,–,1000 to 10000,> 10000,–,200 to 2000,–,> 10000,> 10000
CC(C)(C)[C@H](OCC1CC1)C(=O)N1C[C@H]2[C@@H]([C@H]1C(=O)N[C@H](C#N)C[C@@H]1CCNC1=O)[C@H]1C=C[C@@H]2C1 [Compound 56],≥ 10000,1000 to 10000,1000 to 10000,> 10000,–,200 to 2000,–,–,> 10000
CC(C)(C)[C@@H](C(=O)N1C[C@H]2[C@@H]([C@H]1C(=O)N[C@H](C#N)C[C@@H]1CCNC1=O)[C@H]1C=C[C@@H]2C1)N1CCCC1=O [Compound 70],≥ 10000,–,10000 to 50000,> 10000,–,2000 to 20000,–,> 10000,> 10000
"CC(C)(C)[C@H](NC(=O)C(F)(F)F)C(=O)N1C[C@H]2[C@@H]([C@H]1C(=O)N[C@H](C#N)C[C@@H]1CCNC1=O)[C@H]1C=C[C@@H]2C1 [Example 1, (1S,3aR,4S,7R,7aS)-N-((S)-1-cyano-2-((S)-2-oxopyrrolidin-3-yl)ethyl)-2-((S)-3,3-dimethyl-2-(2,2,2-trifluoroacetamido)butanoyl)-2,3,3a,4,7,7a-hexahydro-1H-4,7-methanoisoindole-1-carboxamide]",≥ 10000,< 100,< 100,> 10000,< 100,< 20,–,–,–
"CC(C)(C)[C@H](NC(=O)C(F)(F)F)C(=O)N1C[C@@H]2[C@H]3C[C@H]([C@@H]4C[C@@H]43)[C@@H]2[C@H]1C(=O)N[C@H](C#N)C[C@@H]1CCNC1=O [Example 2, (1R,2S,3S,6R,7S,8S,10R)—N-[(1S)-1-cyano-2-[(3S)-2-oxopyrrolidin-3-yl]ethyl]-4-[(2S)-3,3-dimethyl-2-(2,2,2-trifluoroacetamido)butanoyl]-4-azatetracyclo[5.3.1.0^{2,6}0.0^{8,10}]undecane-3-carboxamide]",≥ 10000,< 100,< 100,> 10000,100 to 1000,20 to 200,–,–,–
"CC(C)(C)[C@H](NC(=O)C(F)(F)F)C(=O)N1C[C@H]2[C@@H]([C@H]1C(=O)N[C@H](C#N)CC1Cn3nccc3NC1=O)[C@H]1C=C[C@@H]2C1 (stereo partly drawn) [Example 9, (1S,3aR,4S,7R,7aS)—N-((1S)-1-cyano-2-(5-oxo-4,5,6,7-tetrahydropyrazolo[1,5-a]pyrimidin-6-yl)ethyl)-2-((S)-3,3-dimethyl-2-(2,2,2-trifluoroacetamido)butanoyl)-2,3,3a,4,7,7a-hexahydro-1H-4,7-methanoisoindole-1-carboxamide]",≥ 10000,100 to 1000,< 100,> 10000,< 100,< 20,–,–,–
"O=C(NC1CC1)C(=O)C(C[C@@H]1CCNC1=O)NC(=O)[C@@H]1[C@@H]2[C@H](CN1C(=O)[C@@H]1C[C@]13CCCc1ccccc13)[C@@H]1C=C[C@H]2C1 (stereo partly drawn) [Example 11, (1S,3aR,4S,7R,7aS)—N-(4-(cyclopropylamino)-3,4-dioxo-1-((S)-2-oxopyrrolidin-3-yl)butan-2-yl)-2-((1R,2R)-3′,4′-dihydro-2′H-spiro[cyclopropane-1,1′-naphthalene]-2-carbonyl)-2,3,3a,4,7,7a-hexahydro-1H-4,7-methanoisoindole-1-carboxamide]",≥ 10000,100 to 1000,100 to 1000,–,100 to 1000,< 20,200 to 2000,–,–
"CC(C)(C)[C@H](NC(=O)C(F)(F)F)C(=O)N1C[C@@H]2[C@@H]3CC[C@@H](C3)[C@@H]2[C@H]1C(=O)N[C@H](C#N)C[C@@H]1CCNC1=O [Example 12, (1S,3aR,4R,7S,7aS)-N-((S)-1-cyano-2-((S)-2-oxopyrrolidin-3-yl)ethyl)-2-((S)-3,3-dimethyl-2-(2,2,2-trifluoroacetamido)butanoyl)octahydro-1H-4,7-methanoisoindole-1-carboxamide]",≥ 10000,< 100,< 100,> 10000,< 100,< 20,–,–,–
